“And” between values parts separate entries of the source, which are not always exact repeats. Identical values can stand only once. Starred links: 1 amine or outer side, 2 acyl side, 3 side chain; linkers in the order of their positions; H or OH if unused. Non-standard residues stand in square brackets, D forms with d. Residues, ends and D or L forms follow the SMILES beside them. Groups on a side chain read outwards from the residue. *: point of attachment. C20 diacid = O=C(O)CCCCCCCCCCCCCCCCCCC(=O)*; γGlu = O=C(O)[C@H](CCC(=O)[*:2])N[*:1]; NMeI = CC[C@H](C)[C@H](NC)C(=O)O; AEEA = NCCOCCOCC(=O)O
Assays:
[1] = Pharmacokinetics, single intravenous dose, monkeys; details: for clearance: in vivo, CL
Experimental: Plasma concentrations of compounds were determined by LC/MS methods. Each method measured the intact compound; peptide plus linked time extension. […] Two distinct layers were formed upon centrifugation with the compound and the IS located in the supernatant layer. An aliquot of the supernatant (80 μl) was transferred to a Thermo Protein Precipitation Plate with water (150 μl) and formic acid (25 μl) followed by mixing. A final 31% acetonitrile in 10% formic acid sample (10 μl) was loaded onto a Supelco Analytical Discovery BIO Wide Pore C5-3 column (5 cm×1 mm, 3 μm). The column effluent was directed into a Thermo Q-Exactive mass spectrometer for detection and quantitation.
(§1) Male Cynomolgus monkeys were administered a single subcutaneous dose or intravenous dose (96.4 nmol/kg) of a compound described herein in 20 mM Tris-HCl Buffer (pH 7) at a volume of 1 mL/kg. Blood was collected from each animal at 2, 6, 24, 48, 72, 96, 168, 240, 336, 408, and 504 hours postdose for pharmacokinetic characterization.

in vivo [2] = details: male, cynomolgus monkey, sc, 50 nmol/kg
Experimental: (§2) Plasma concentrations of compounds were determined by LC/MS methods. Each method measured the intact compound; peptide plus linked time extension. For each assay, the compound and an analog, used as an internal standard (IS), were extracted from 100% mouse, rat or monkey plasma (25 μl) using acetonitrile. Two distinct layers were formed upon centrifugation with the compound and the IS located in the supernatant layer. An aliquot of the supernatant (80 μl) was transferred to a Thermo Protein Precipitation Plate with water (150 μl) and formic acid (25 μl) followed by mixing. A final 31% acetonitrile in 10% formic acid sample (10 μl) was loaded onto a Supelco Analytical Discovery BIO Wide Pore C5-3 column (5 cm×1 mm, 3 μm). The column effluent was directed into a Thermo Q-Exactive mass spectrometer for detection and quantitation.
as §1
Male Cynomolgus monkeys were also administered a single subcutaneous dose (50 nmol/kg) of a compound described herein in 20 mM Tris-HCl Buffer (pH 8) at a volume of 0.26 mL/kg. Blood was collected from each animal at 3, 6, 12, 24, 48, 72, 96, 120, 168, 192, 240, 336, 408, and 504 hours postdose for pharmacokinetic characterization.

in vivo [3] = details: male, CD-1, mouse, sc, 350 nmol/kg
Experimental: as §2
Male CD-1 mice were administered a single subcutaneous dose (350, 386 or 388 nmol/kg) of a compound described herein in 20 mM Tris-HCl Tris Buffer (pH 7 or 8) at a volume of 0.05 or 0.06 mL/animal. Blood was collected at 6, 12, 24, 48, 72, 96, 120 and 168 hours postdose for pharmacokinetic characterization (101).

[4] = male Cynomolgus monkeys, single 96.4 nmol/kg i.v., individual animal
[5] = male, cynomolgus monkey, plasma, iv, 96.4 nmol/kg

Row | Structure (SMILES) | clearance ([1]; cynomolgus monkey, iv, 96.4 nmol/kg, male Cynomolgus monkeys, single 96.4 nmol/kg i.v., Mean) [mL/day/kg] | clearance ([1]; cynomolgus monkey, iv, 96.4 nmol/kg, male Cynomolgus monkeys, single 96.4 nmol/kg i.v., individual animal) [mL/day/kg] | C0 (estimated plasma concentration at time zero) [1, 4] | CL [1, 4] [mL/day/kg] | AUC(0-inf) [1, 5] [µM·h] | C0 [1, 5] [µM] | CL/F (in vivo [2]; CL/F) [mL/day/kg] | half-life (in vivo [2]; T1/2) [h] | CL/F (in vivo [3]) [mL/day/kg] | half-life (in vivo [3]) [h]
1 | CC[C@H](C)[C@H](NC(C)=O)C(=O)N[C@H](C(=O)N[C@@H](CC(C)C)C(=O)N[C@@H](CO)C(=O)N[C@@H](CC(C)C)C(=O)N[C@@H](CC(=O)O)C(=O)N[C@H](C(=O)N1CCC[C@H]1C(=O)N[C@H](C(=O)NCC(=O)N[C@@H](CC(C)C)C(=O)N[C@@H](CC(C)C)C(=O)N[C@@H](CCC(N)=O)C(=O)N[C@H](C(=O)N[C@@H](CC(C)C)C(=O)N[C@@H](CC(C)C)C(=O)N[C@@H](CCC(=O)O)C(=O)N[C@@H](CCC(N)=O)C(=O)N[C@@H](CCC(=O)O)C(=O)N[C@@H](CCCCN)C(=O)N[C@@H](CCC(N)=O)C(=O)N[C@@H](CCC(=O)O)C(=O)N[C@@H](CCCCN)C(=O)N[C@@H](CCC(=O)O)C(=O)N[C@@H](CCCCN)C(=O)N[C@@H](CCC(N)=O)C(=O)N[C@@H](CCC(N)=O)C(=O)N[C@@H](C)C(=O)N[C@@H](CCCCNC(=O)COCCOCCNC(=O)COCCOCCNC(=O)CC[C@H](NC(=O)CC[C@H](NC(=O)CCCCCCCCCCCCCCCCCCC(=O)O)C(=O)O)C(=O)O)C(=O)N[C@H](C(=O)N[C@@H](CC(N)=O)C(=O)N[C@@H](C)C(=O)N[C@@H](CCC(N)=O)C(=O)N[C@H](C(=O)N[C@@H](CC(C)C)C(=O)N[C@@H](C)C(=O)N[C@@H](CCC(N)=O)C(=O)N[C@H](C(N)=O)C(C)C)[C@@H](C)CC)[C@@H](C)O)[C@@H](C)CC)[C@@H](C)CC)C(C)C)C(C)C [Example 2] (Ac-IVLSLDVPIGLLQILLEQEKQEKEKQQAK([AEEA-AEEA-γGlu-γGlu-C20 diacid])TNAQILAQV-NH2) | 7.68 | 6.72 | 3.267 µM and 3.059 µM | 8.64 | 306 | 3.16 |  |  |  | 
2 | CC[C@H](C)[C@H](NC)C(=O)N[C@H](C(=O)N[C@@H](CC(C)C)C(=O)N[C@@H](CO)C(=O)N[C@@H](CC(C)C)C(=O)N[C@@H](CC(=O)O)C(=O)N[C@H](C(=O)N1CCC[C@H]1C(=O)N[C@H](C(=O)NCC(=O)N[C@@H](CC(C)C)C(=O)N[C@@H](CC(C)C)C(=O)N[C@@H](CCC(N)=O)C(=O)N[C@H](C(=O)N[C@@H](CC(C)C)C(=O)N[C@@H](CC(C)C)C(=O)N[C@@H](CCC(=O)O)C(=O)N[C@@H](CCC(N)=O)C(=O)N[C@@H](CCC(=O)O)C(=O)N[C@@H](CCCCN)C(=O)N[C@@H](CCC(N)=O)C(=O)N[C@@H](CCC(=O)O)C(=O)N[C@@H](CCCCN)C(=O)N[C@@H](CCC(=O)O)C(=O)N[C@@H](CCCCN)C(=O)N[C@@H](CCC(N)=O)C(=O)N[C@@H](CCC(N)=O)C(=O)N[C@@H](C)C(=O)N[C@@H](CCCCNC(=O)COCCOCCNC(=O)COCCOCCNC(=O)CC[C@H](NC(=O)CC[C@H](NC(=O)CCCCCCCCCCCCCCCCCCC(=O)O)C(=O)O)C(=O)O)C(=O)N[C@H](C(=O)N[C@@H](CC(N)=O)C(=O)N[C@@H](C)C(=O)N[C@@H](CCC(N)=O)C(=O)N[C@H](C(=O)N[C@@H](CC(C)C)C(=O)N[C@@H](C)C(=O)N[C@@H](CCC(N)=O)C(=O)N[C@H](C(N)=O)C(C)C)[C@@H](C)CC)[C@@H](C)O)[C@@H](C)CC)[C@@H](C)CC)C(C)C)C(C)C [Example 4] (H-[NMeI]VLSLDVPIGLLQILLEQEKQEKEKQQAK([AEEA-AEEA-γGlu-γGlu-C20 diacid])TNAQILAQV-NH2) |  |  |  |  |  |  | 23.3 | 79 | 163 | 18
